Inconclusive results are not listed. Activity calls are given as the source filed them. The rule behind the calls is not given here.

Among the data in PubChem BioAssay AID1960 (Broad Institute, 2009) are EC50 values, retold here.

This test addresses Zinc finger protein mex-5 (Caenorhabditis elegans) (UniProt Q9XUB2). Kind of test: potency of MEX-5 RNA-binding blockers – biochemical, fluorescence polarization, dose response (AID 1960). The conditions noted are these: MEX-5/FITC-TCR2 RNA fluorescence polarization, 1 h. On the technique in general: Polarisation of emitted light reports the rotation of a fluorescent probe.

Sequence of Zinc finger protein mex-5 (Caenorhabditis elegans) (Q9XUB2 whole entry, looked up): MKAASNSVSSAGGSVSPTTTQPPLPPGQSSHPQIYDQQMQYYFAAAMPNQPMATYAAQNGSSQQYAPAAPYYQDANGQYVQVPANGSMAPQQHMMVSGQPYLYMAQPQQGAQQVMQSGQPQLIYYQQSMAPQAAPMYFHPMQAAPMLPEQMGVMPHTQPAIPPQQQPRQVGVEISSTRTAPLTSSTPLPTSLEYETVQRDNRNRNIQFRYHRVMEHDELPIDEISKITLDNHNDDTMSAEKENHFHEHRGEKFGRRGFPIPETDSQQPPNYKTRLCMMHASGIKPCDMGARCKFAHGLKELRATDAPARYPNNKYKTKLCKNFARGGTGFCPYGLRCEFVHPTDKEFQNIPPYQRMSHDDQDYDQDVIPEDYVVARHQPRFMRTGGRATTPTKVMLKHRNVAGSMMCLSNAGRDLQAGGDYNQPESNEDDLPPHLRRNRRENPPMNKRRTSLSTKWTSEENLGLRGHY

A word on the EC50: it is the midpoint of the concentration-response curve. For `Cc1cc(/C=C2/C(=O)NC(=O)N(Cc3ccco3)C2=O)c(C)n1-c1ccc(C(=O)O)cc1`, the EC50 was > 30 µM (inactive). The figure for `CCC(C)/C=C(C)/C=C/C1=CC2=C(Cl)C(=O)C(C)(OC(C)=O)C(=O)C2=CO1` (centres undefined) is > 30 µM (inactive).

Turning to `CC[C@H](C)/C=C(C)/C=C/C1=CC2=C(Cl)C(=O)[C@@](C)(OC(C)=O)C(=O)C2=CO1`, the EC50 is 17.8 µM. The figure for `CCN(CC)c1ccc(N=Cc2c(O)n(Cc3ccccc3)c(=O)[nH]c2=O)cc1` is > 30 µM (inactive).
